US11873298B2, “Compounds and uses thereof” (JANSSEN PHARMACEUTICA NV, priority 2017, dated 2024)

Tests used:
[1] = target: T1, SCD1 (Homo sapiens, UniProt O00767); test: Growth inhibition of humanized yeast strain expressing SCD1 as sole desaturase; format: cell-based
T1 construct: host or cells: S. cerevisiae ole1Δ strain (W303 pdr1Δ pdr3Δ background), plasmid pRS316 with TDH3 promoter and CYC1 terminator
T1 sequence (O00767 1-359): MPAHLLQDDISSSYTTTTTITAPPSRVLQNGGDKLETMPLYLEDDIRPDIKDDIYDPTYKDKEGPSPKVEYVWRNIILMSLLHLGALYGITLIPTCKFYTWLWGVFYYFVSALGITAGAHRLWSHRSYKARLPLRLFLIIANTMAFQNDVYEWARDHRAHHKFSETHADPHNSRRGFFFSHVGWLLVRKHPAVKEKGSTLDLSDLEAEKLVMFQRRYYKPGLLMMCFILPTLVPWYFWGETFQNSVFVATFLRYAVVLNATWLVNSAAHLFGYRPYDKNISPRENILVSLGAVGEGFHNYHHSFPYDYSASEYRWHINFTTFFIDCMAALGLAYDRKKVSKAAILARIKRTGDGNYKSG
Procedure: (§1) Strain oleΔ (yeast ole1 deletion mutant) was constructed by deleting OLE1 with NAT-MX6 in BY4741, amplifying the deletion cassette from the genomic DNA of the resulting strain with primers flanking the ORF by 1000 bp upstream and downstream, transforming the resulting deletion cassette into W303 pdr1Δ pdr3Δ, and plating transformants on YPD media containing G418 (200 μg/mL) and nourseothricin ([…]) with 0.01% TWEEN®-20 and 0.5 mM oleic and palmitoleic acids.
(§2) The coding sequence of yeast OLE1 was also cloned into this plasmid). These clones were then transformed into the ole1Δ strain and plated on CSM-Ura media (CSM lacking uracil) with 2% glucose (w/v) and independent colonies were isolated and amplified.
(§3) All compound profiling experiments were performed using the same basic protocol. Different genetic backgrounds (e.g., gene deletions) or conditions (e.g., addition of oleic and palmitoleic acid) were replaced as indicated below.
(§4) Yeast were cultured using standard techniques in complete synthetic media (CSM) and yeast nitrogen base supplemented with 2% (w/v) carbon source (glucose, raffinose, or galactose) to regulate the expression of the toxic disease protein. An initial starter culture was inoculated in 3 mL CSM-Glucose media and incubated overnight in a 30° C. shaker incubator (225 rpm). Saturated morning cultures were then diluted 1:20 in fresh CSM-Raffinose media and grown for 6 h to an OD600 (optical density) of ˜0.4-0.8 at 30° C. with shaking.
(§5) Compound administration was performed in two separate steps. First, 15 μL of CSM-Galactose (induces expression of toxic protein) was dispensed into clear 384 well assay plates using a MULTIDROP™ Combi reagent dispenser. […] The cultures described above were then diluted to a 2× concentration (0.03 and 0.08 for alpha-synuclein and ApoE, final ODsoo of 0.015 and 0.04) in CSM-Galactose. For wild-type and Ole1/SCD1/SCD5 plasmid-containing strains, the 2× cell density was 0.02. […] For 96-well assays (FIGS. 1A and 1B), compound dilutions in DMSO were generated in 96 well plates and 1 μL was manually pipetted into 96 well clear bottom assay plates.
(§6) For experiments using a plasmid-borne copy of Ole1, SCD1, or SCD5 (FIGS. 3B, 6, and 7), media lacking uracil (SX-Ura, where X is glucose, raffinose, or galactose), was used for all steps of the compound profiling protocol to ensure its maintenance throughout the assay.
(§7) After yeast delivery, assay plates were incubated under humidified conditions at 30° C. for 24 to 40 h. ApoE4 rescue experiments were stopped at 24 h, aSyn experiments at 40 h, Ole1 at 24 h, and SCD1/SCD5 at 40 h. The growth of yeast was monitored by reading the ODsoo of each well using a microplate reader (Perkin Elmer EnVision™).

[2] = target: T2, SCD5 (Homo sapiens, UniProt Q86SK9); test: Growth inhibition of humanized yeast strain expressing SCD5 as sole desaturase; format: cell-based
T2 construct: host or cells: S. cerevisiae ole1Δ strain (W303 pdr1Δ pdr3Δ background), plasmid pRS316 with TDH3 promoter and CYC1 terminator
T2 sequence (Q86SK9 1-330): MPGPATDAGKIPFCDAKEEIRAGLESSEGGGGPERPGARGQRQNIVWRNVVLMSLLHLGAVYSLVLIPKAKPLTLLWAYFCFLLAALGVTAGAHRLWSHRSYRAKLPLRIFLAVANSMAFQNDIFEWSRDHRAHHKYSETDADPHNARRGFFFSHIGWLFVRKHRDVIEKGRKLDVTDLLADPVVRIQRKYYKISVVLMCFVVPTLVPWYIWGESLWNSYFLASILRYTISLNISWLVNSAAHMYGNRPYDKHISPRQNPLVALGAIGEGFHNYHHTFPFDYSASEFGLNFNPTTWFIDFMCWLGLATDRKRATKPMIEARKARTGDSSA
Procedure: as §1, §2, §3, §4, §5, §6, §7

[3] = growth inhibition of humanized yeast strain expressing human SCD1
[4] = growth inhibition of humanized yeast strain expressing human SCD5
[5] = humanized yeast strain expressing SCD1
[6] = humanized yeast strain expressing SCD5
[7] = yeast strain expressing human SCD1 as sole desaturase, Table 8
[8] = yeast strain expressing human SCD5 as sole desaturase, Table 8

| SMILES | IC50 ([1]; humanized yeast strain, 40 h) | IC50 ([2]; humanized yeast strain, 40 h) | other results |
| --- | --- | --- | --- |
| CC(C)(C)OC(=O)N1CCN(c2nc(-c3ccc4cn(C5COC5)nc4c3)no2)CC1 [Compound 701] |  |  | IC50 [1, 3]: > 45 µM; IC50 [2, 4]: > 45 µM |
| CC(C)(C)OC(=O)N1CCC(c2nc(-c3ccc4cnn(C5CS(=O)(=O)C5)c4c3)no2)CC1 [Compound 690] |  |  | IC50 [1, 3]: > 45 µM; IC50 [2, 4]: 0.131 µM |
| CC(C)(C)OC(=O)N1C[C@@H]2[C@H](C1)[C@H]2C(=O)NCc1ccncc1 [Compound 768] | > 45 µM | > 45 µM |  |
| C=C(C)c1ccc(C(=O)N2CCC(c3nc(-c4ccc5cnn(C)c5c4)no3)CC2)nc1 [Compound 501] |  |  | IC50 [1, 5]: 12.2 µM; IC50 [2, 6]: 21.3 µM |
| CC1(C(=O)N2CCN(c3nc(-c4ccc5cnn(C6COC6)c5c4)no3)CC2)CCCO1 (centres unmarked) [Compound 916] | 1.96 µM | 0.01 µM |  |
| COC(=O)N1CCC(c2noc(-c3ccc4ccn(C(C)C)c4c3)n2)CC1 [Compound 1037] | 10.2 µM | 0.457 µM |  |
| CC(=O)N1CC(n2ncc3ccc(-c4noc(N5CCN(C(=O)OC(C)(C)C)CC5)n4)cc32)C1 [Compound 897] | > 45 µM | 0.06 µM |  |
| CC(C)c1ncn2ccc(-c3nc(C4CCN(C(=O)OC(C)(C)C)CC4)no3)cc12 [Compound 1040] | > 45 µM | 0.791 µM |  |
| CCOC(=O)N1CCC(c2nc(-c3ccc4cnn(C(C)C)c4c3)no2)CC1 [Compound 361] |  |  | SCD1 % Max Inhibition [1, 5]: 67.22%; IC50 [2, 6]: > 45 µM; SCD5 % Max Inhibition [2, 6]: 0.95% |
| CC(C)(C)OC(=O)N1CCN(c2nc(-c3ccc4cnn(C5COC5)c4c3)no2)CC1 [Compound 664] |  |  | IC50 [1, 3]: 23.5 µM; IC50 [2, 4]: 0.023 µM |
| CC(C)(C)OC(=O)N1CCC(c2nsc(-c3ccc4cnn(C5COC5)c4c3)n2)CC1 [Compound 780] | > 45 µM | 0.027 µM |  |
| C[C@@H]1CN(c2noc(-c3ccc4cnn(C5COC5)c4c3)n2)CCN1C(=O)OC(C)(C)C [Compound 959] | > 45 µM | > 45 µM |  |
| CC(C)n1ncc2ccc(-c3noc(N4CCN(C(=O)c5ccccc5Cl)CC4)n3)cc21 [Compound 364] |  |  | SCD1 % Max Inhibition [1, 5]: 70.82%; IC50 [2, 6]: > 45 µM; SCD5 % Max Inhibition [2, 6]: 2.22% |
| CC(C)(C)OC(=O)N1CCC(c2nc(-c3ccccc3)no2)CC1 [Compound 808] | > 45 µM | 5.82 µM |  |
| CC(C)C(=O)N1CCC(c2noc(-c3ccc4cnn(C5COC5)c4c3F)n2)CC1 [Compound 1112] | > 45 µM | 0.193 µM |  |
| CC(C)(C)OC(=O)N1CCC(c2nc(-c3ccc4cnn(C5CNC5)c4c3)no2)CC1 [Compound 728] |  |  | IC50 [1, 3]: > 45 µM; IC50 [2, 4]: 0.126 µM |
| Cc1nn(C)c2cc(-c3nc(C4CCN(C(=O)C5CC5)CC4)no3)ccc12 [Compound 920] | 11.7 µM | 0.1 µM |  |
| COC(=O)N1CCC(c2noc(-c3ccc4cnn([C@@H]5CCOC5)c4c3)n2)CC1 [Compound 877] | > 45 µM |  |  |
| CC1(OC(=O)N2CCC(c3noc(-c4ccc5cnn([C@H]6CCOC6)c5c4)n3)CC2)CC1 [Compound 1209] |  |  | IC50 [1, 7]: 12.6 µM |
| COC(=O)N1CCC(c2noc(-c3ccc4cnn([C@@H]5CCOC5)c4c3)n2)CC1 [Compound 876] | > 45 µM |  |  |
| CC(C)(C)OC(=O)N1CCC(c2noc(-c3ccc4cnn([C@H]5CCOC5)c4c3)n2)CC1 [Compound 1201] |  |  | IC50 [1, 7]: 1.4 µM |
| Cc1cc(-c2nc(C3CCN(C(=O)OC(C)(C)C)CC3)no2)cc(C2CCOC2)n1 (centres unmarked) [Compound 1266] |  |  | IC50 [1, 7]: 31.7 µM |
| O=C(C1CCC1)N1CCC(c2noc(-c3ccc(F)c(N4CCOCC4)c3)n2)CC1 [Compound 1258] |  |  | IC50 [2, 8]: 0.04 µM |
| O=C(C1CC1)N1CCC(c2noc(-c3cc(C4CCOC4)c(F)cn3)n2)CC1 (centres unmarked) [Compound 1296] |  |  | IC50 [2, 8]: 0.25 µM |
| O=C(N1CCC(c2noc(-c3cc(C4CCOC4)ncc3F)n2)CC1)C1(F)CCC1 (centres unmarked) [Compound 1275] |  |  | IC50 [2, 8]: 0.02 µM |
